The target of one assay is T1, Adenosine receptor A1 (Homo sapiens, UniProt P30542).
T1 sequence (P30542 whole entry): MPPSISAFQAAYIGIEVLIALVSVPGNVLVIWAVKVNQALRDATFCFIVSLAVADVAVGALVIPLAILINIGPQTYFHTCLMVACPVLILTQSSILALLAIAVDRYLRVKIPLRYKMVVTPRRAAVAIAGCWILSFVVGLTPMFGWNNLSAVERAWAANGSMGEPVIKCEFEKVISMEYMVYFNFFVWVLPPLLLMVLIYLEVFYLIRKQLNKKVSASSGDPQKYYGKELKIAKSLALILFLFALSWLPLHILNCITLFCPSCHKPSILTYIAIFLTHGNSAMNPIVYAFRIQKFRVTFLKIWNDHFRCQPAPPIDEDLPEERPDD
The assay is described as follows: Binding affinity to human A1AR assessed as inhibition constant.

Assay [1] addresses Proto-oncogene tyrosine-protein kinase receptor Ret (Homo sapiens, UniProt P07949). The assay is described as follows: Inhibition of rearranged during transfection kinase (unknown origin).
The target in assay [2] is T2, Histone-lysine N-methyltransferase ASH1L (Homo sapiens, UniProt Q9NR48). The assay is described as follows: Binding affinity to ASH1L SET domain (2069 to 2288 residues) (unknown origin) assessed as dissociation constant by ITC analysis. Background: ITC needs no label: the signal is the heat of the interaction.
For assay [3], the target named is T3, Muscarinic acetylcholine receptor M1 (Homo sapiens, UniProt P11229).
T3 sequence (P11229 whole entry): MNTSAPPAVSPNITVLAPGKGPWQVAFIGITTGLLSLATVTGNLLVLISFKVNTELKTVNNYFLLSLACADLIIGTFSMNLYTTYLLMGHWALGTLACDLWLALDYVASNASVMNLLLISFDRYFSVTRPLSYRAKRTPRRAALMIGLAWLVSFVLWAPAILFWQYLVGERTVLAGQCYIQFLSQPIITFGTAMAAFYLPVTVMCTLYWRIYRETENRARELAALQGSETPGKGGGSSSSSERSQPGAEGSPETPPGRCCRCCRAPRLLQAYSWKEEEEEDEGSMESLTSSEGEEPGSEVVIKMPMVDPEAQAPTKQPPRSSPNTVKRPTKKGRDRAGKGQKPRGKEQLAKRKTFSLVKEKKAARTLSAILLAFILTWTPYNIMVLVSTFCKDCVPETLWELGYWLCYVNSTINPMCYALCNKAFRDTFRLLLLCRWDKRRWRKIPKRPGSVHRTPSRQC
The assay is described as follows: Agonist activity at human M1 receptor. The class given is functional.

Assay [4] addresses YEATS domain-containing protein 4 (Homo sapiens, UniProt O95619). The assay is described as follows: Inhibition of human N-terminal GST tagged GAS41 (1 to 148 residues) incubated for 1 hr by fluorescence polarization assay.
Assay [5] addresses T2, Histone-lysine N-methyltransferase ASH1L. The assay is described as follows: Inhibition of N-terminal Mocr-tagged ASH1L (2069 to 2288 residues) (unknown origin) expressed in Escherichia coli BL21 (DE3) by […].

Chain of Proto-oncogene tyrosine-protein kinase receptor Ret (P07949 whole entry, the tested form may be a part): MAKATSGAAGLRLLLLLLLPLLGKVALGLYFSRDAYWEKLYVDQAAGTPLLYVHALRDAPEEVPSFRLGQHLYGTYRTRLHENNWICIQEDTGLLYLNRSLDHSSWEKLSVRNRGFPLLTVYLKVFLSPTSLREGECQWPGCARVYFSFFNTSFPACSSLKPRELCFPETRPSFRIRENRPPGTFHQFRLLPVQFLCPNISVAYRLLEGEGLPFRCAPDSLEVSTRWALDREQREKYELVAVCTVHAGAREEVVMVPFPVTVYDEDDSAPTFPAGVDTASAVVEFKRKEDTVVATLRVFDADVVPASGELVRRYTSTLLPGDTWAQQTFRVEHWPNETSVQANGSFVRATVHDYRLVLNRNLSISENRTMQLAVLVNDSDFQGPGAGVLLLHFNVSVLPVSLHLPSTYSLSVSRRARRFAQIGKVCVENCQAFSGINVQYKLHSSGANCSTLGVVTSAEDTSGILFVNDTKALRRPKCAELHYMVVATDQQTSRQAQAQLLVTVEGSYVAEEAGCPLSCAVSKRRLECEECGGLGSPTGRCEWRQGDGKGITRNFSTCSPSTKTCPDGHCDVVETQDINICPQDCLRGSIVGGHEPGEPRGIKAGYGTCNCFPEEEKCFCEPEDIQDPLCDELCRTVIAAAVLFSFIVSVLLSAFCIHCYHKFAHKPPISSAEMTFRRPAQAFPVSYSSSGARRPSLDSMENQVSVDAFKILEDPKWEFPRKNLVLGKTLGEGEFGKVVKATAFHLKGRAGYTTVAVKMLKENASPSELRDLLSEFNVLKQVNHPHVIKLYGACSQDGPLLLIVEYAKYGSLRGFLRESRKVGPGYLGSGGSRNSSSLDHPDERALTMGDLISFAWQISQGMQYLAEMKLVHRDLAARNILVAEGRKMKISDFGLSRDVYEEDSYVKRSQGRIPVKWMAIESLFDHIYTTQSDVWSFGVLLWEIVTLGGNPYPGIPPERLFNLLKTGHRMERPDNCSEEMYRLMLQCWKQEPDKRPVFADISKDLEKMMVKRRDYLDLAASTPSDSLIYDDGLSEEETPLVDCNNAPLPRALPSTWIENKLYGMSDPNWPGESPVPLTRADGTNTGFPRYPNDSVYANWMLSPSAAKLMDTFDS
Chain of YEATS domain-containing protein 4 (O95619 whole entry, the tested form may be a part): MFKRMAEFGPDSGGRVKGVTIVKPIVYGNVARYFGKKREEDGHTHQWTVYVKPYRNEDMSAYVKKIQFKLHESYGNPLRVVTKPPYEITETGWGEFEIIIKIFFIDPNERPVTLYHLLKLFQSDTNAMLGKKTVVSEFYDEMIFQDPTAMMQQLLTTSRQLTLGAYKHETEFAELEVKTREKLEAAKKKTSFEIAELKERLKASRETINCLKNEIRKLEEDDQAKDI

As usually defined, the Ki is a measure of affinity in units of concentration, obtained from inhibition or displacement. Turning to `CC(=O)Nc1nc2ccccc2s1`, at Adenosine receptor A1, the Ki was 11 µM.
By IC50 is commonly meant the point on the concentration scale where inhibition reaches its midpoint. With `Nc1ncnc2[nH]ncc12`, the IC50 in assay [1] is 9.2 µM.
By Kd is commonly meant the equilibrium constant for the complex coming apart. For `NC(=S)c1cccc(-n2cccc2)c1`, the dissociation constant Kd in assay [2] was above 1000 µM.
In general, EC50 refers to the concentration needed to bring the measured effect to its halfway point. Low values mean greater potency, high ones weaker potency. Compound `CCOC(=O)N1CCC(N2CCC(C(N)=O)CC2)CC1` displayed an EC50 in assay [3] of 3.2 µM.
In turn, `O=C(Nc1ccc(C(=O)N2CC(c3nc4ccccc4s3)C2)s1)[C@@H]1C[C@@H](OCCCCCO[C@H]2CN[C@H](C(=O)Nc3ccc(C(=O)N4CC(c5nc6ccccc6s5)C4)s3)C2)CN1` yielded an IC50 in assay [4] of 0.096 µM.
In turn, `CN1CC(C(=O)NCc2ccc3c(-c4cccc(C(N)=S)c4)cn(C4CCC(S(=O)(=O)C(F)(F)F)CC4)c3c2)C1` (stereo unspecified) displayed a half-inhibitory concentration (IC50) in assay [5] of 0.79 µM.
